Test [1] addresses T1, PI3K α (Homo sapiens, UniProt P42336).
T1 construct: Full length p110 subunits of PI3K α, β and δ, N-terminally labeled with polyHis tag; polyHis (N); made in house; host or cells: Sf9 insect cells (baculovirus)
Kind of test: In vitro PI3 kinase enzyme assay (alpha), ATP loss, bioluminescence.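 Further: purified p110α/p85 heterodimer acting on PtdIns(4,5)P2 at room temperature, remaining ATP read by luminescence, inhibition scaled between compound-free wells with and without enzyme.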 Type of test: biochemical. As to conditions: read-out: PI3Kα ATP loss IC50.

The target of test [2] is T2, PI3K β (Homo sapiens, UniProt P42338).
T2 construct: Full length p110 subunits of PI3K α, β and δ, N-terminally labeled with polyHis tag; polyHis (N); made in house; host or cells: Sf9 insect cells (baculovirus)
Kind of test: In vitro PI3 kinase enzyme assay (beta), ATP loss, bioluminescence.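 Further: purified p110β/p85 heterodimer with PtdIns(4,5)P2 as acceptor, incubated at room temperature, leftover ATP read by luminescence, inhibition scaled to compound-free wells with and without enzyme.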 As to conditions: read-out: PI3Kβ ATP loss IC50. Type of test: biochemical.

Test [3] deals with phosphorylation of Serine 473 in Akt, HCT 116 human colon carcinoma cells. Put plainly: Cell-based phospho-AKT Ser473 assay (MSD sandwich immunoassay, IGF-1 stimulated). Particulars: read-out: HCT 116 pAKT IC50. The gist of the method: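 HCT116 cells, 16,000/well and plated overnight, were pre-treated with serially diluted compound for 2 h at 37 °C, then stimulated with IGF-1 at 100 ng/ml for 15 min. Lysates were assayed for Akt pSer473 by MSD sandwich electrochemiluminescence, and IC50 was derived from dose-response data.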

Where [4] appears, read: Homo sapiens, HCT-116, HCT 116 cells.

pIC50: −log10 of the molar value. Like-named read-outs stand apart in the source and are kept apart here.

Broadly, the pIC50 is −log10 of the IC50, conventionally taken in molar units.

T1 sequence (P42336 whole entry, species assumed): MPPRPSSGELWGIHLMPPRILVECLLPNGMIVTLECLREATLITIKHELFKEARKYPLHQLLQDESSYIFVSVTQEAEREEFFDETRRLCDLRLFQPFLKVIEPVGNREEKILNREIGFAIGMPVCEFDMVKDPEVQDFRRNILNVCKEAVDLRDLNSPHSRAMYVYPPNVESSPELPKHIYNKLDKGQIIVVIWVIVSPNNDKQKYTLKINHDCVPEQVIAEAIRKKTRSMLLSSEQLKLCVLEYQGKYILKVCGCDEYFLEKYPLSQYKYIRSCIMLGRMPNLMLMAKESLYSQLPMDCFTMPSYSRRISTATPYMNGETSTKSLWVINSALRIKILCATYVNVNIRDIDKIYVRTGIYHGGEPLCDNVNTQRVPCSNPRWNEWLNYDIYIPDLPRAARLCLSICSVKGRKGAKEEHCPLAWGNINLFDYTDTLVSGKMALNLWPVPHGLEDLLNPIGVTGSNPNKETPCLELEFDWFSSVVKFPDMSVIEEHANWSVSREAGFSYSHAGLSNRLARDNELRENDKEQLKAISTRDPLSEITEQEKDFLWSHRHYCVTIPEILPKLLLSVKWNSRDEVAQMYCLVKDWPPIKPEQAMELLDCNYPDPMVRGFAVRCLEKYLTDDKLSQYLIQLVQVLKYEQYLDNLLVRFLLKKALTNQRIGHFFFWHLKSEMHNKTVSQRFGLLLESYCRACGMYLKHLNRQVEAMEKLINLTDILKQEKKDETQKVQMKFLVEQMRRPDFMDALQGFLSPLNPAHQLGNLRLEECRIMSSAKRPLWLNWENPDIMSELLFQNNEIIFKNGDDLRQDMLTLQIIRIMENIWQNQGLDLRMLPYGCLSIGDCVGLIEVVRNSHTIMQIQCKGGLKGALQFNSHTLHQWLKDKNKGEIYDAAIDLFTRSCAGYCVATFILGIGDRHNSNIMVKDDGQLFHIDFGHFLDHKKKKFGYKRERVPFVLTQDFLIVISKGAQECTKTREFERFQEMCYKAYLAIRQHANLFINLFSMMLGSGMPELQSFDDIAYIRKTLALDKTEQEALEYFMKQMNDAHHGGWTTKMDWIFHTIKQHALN
T1 sequence (P27986 whole entry partner, species assumed): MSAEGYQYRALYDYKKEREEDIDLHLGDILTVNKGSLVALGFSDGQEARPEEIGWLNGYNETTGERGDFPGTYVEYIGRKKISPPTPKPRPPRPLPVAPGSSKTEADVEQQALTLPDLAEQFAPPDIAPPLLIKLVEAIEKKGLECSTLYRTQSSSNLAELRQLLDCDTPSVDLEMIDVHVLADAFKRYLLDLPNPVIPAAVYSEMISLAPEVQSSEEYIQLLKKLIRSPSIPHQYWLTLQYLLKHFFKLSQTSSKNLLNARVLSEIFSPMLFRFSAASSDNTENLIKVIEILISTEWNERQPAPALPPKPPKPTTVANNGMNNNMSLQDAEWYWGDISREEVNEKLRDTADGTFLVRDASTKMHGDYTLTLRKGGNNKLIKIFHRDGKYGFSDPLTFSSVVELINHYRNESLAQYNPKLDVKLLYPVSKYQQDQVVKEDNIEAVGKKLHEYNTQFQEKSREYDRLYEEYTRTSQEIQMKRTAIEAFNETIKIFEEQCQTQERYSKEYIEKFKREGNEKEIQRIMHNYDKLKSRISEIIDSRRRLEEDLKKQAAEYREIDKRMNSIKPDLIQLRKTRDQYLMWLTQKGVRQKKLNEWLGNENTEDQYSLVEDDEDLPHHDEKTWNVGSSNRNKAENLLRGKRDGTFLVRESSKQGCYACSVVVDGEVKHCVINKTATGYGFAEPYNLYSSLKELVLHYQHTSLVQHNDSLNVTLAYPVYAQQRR
T2 sequence (P42338 whole entry): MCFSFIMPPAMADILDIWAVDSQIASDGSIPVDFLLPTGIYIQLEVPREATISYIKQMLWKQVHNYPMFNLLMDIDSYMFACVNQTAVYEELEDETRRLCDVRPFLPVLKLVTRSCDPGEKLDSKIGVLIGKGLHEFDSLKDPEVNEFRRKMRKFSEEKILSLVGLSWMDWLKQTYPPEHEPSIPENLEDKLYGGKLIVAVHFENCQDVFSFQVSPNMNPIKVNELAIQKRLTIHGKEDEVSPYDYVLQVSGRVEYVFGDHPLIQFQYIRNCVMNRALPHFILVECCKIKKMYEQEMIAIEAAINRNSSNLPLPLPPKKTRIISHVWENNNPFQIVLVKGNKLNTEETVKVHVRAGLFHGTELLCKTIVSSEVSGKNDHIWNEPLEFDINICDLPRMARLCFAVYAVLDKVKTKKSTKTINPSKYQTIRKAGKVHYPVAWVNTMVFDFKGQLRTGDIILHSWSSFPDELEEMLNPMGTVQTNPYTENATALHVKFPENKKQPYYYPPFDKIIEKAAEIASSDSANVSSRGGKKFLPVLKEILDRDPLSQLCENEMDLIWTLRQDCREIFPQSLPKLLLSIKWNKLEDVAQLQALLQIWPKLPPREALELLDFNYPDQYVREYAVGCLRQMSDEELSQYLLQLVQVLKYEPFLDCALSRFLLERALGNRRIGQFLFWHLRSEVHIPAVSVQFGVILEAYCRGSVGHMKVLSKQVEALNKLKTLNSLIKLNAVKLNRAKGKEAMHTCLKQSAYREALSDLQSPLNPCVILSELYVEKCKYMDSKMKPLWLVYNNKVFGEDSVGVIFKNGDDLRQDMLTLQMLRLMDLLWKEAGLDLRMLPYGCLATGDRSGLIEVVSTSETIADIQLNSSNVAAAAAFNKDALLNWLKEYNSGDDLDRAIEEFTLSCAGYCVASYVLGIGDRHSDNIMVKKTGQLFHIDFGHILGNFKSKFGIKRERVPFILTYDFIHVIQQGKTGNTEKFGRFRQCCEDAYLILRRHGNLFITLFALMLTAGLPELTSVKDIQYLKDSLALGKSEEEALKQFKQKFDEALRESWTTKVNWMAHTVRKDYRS
T2 sequence (P27986 whole entry partner): as the sequence (P27986 whole entry partner, species assumed) above

As for `CC(=O)Nc1nc2ccc(-c3cnc(Cl)c(NS(=O)(=O)c4cc(F)cc(F)c4)c3)cc2s1` [Example 176, N-(6-(6-chloro-5-(3,5-difluorophenylsulfonamido)pyridin-3-yl)benzo[d]thiazol-2-yl)acetamide], the pIC50 is 7.99 in test [1], 7.91 in test [2] and 7.74 in test [3] (setting [4]).
Taken in the same sequence, the figures for `CC(=O)Nc1nc2ccc(-c3cnc(Cl)c(NS(=O)(=O)C(C)C)c3)cc2s1` [Example 179, N-(6-(6-chloro-5-(propan-2-ylsulfonamido)pyridin-3-yl)benzo[d]thiazol-2-yl)acetamide] were 7.90, 7.51 and 7.53.
Taken in the same sequence, the figures for `CC(=O)Nc1nc2ccc(-c3cncc(S(=O)(=O)c4ccccc4F)n3)cc2s1` [Example 121, N-(6-(6-((2-fluorophenyl)sulfonyl)-2-pyrazinyl)-1,3-benzothiazol-2-yl)acetamide] were 7.72, 6.30 and 6.72.
Take `COc1cccc(S(=O)(=O)Nc2nccc(-c3ccc4nc(NC(C)=O)sc4c3)n2)c1` [Example 85, N-(6-(2-(((3-methoxyphenyl)sulfonyl)amino)-4-pyrimidinyl)-1,3-benzothiazol-2-yl)acetamide]: the negative logarithm of the IC50 (pIC50) is 7.70 in test [1], 7.08 in test [2] and 6.04 in test [3] (setting [4]).
The like results for `Nc1nc2ccc(-c3cnc(Cl)c(NS(=O)(=O)c4cccc(OC(F)F)c4)c3)cc2s1` [Example 307, N-(5-(2-amino-1,3-benzothiazol-6-yl)-2-chloro-3-pyridinyl)-3-(difluoromethoxy)benzenesulfonamide] were, in that order, 8.17, 7.76 and 6.94.
The like results for `CC(=O)Nc1nc2ccc(-c3cncc(NS(=O)(=O)c4cccc(F)c4)c3)cc2s1` [Example 199, N-(6-(5-(3-fluorophenylsulfonamido)pyridin-3-yl)benzo[d]thiazol-2-yl)acetamide] were, in that order, 8.42, 7.99 and 7.12.
Consider `COc1ccc(Sc2cncc(-c3ccc4nc(NC(C)=O)sc4c3)n2)cc1` [Example 133, N-(6-(6-((4-methoxyphenyl)sulfanyl)-2-pyrazinyl)-1,3-benzothiazol-2-yl)acetamide], for which the values for the pIC50 in test [1], in test [2] and in test [3] (setting [4]) were 7.38, 7.12 and 5.91, respectively.
With `CC(=O)Nc1nc2ccc(-c3cnc(Cl)c(OC(F)F)c3)cc2s1` [Example 247, N-(6-(6-chloro-5-(difluoromethoxy)pyridin-3-yl)benzo[d]thiazol-2-yl)acetamide], the pIC50 in test [1] was 7.71; in test [2], 6.61; in test [3] (setting [4]), 7.03.
Taken in the same sequence, the figures for `CC(=O)Nc1nc2ccc(-c3cnc(Cl)c(NS(=O)(=O)c4cccc(OC(F)F)c4)c3)cc2s1` [Example 184, N-(6-(6-chloro-5-(3-(difluoromethoxy)phenylsulfonamido)pyridin-3-yl)benzo[d]thiazol-2-yl)acetamide] were 8.14, 7.91 and 8.19.
`CCOc1cc(-c2ccc3nc(NC(C)=O)sc3c2)cnc1Cl` [Example 239, N-(6-(6-chloro-5-ethoxypyridin-3-yl)benzo[d]thiazol-2-yl)acetamide]: the pIC50 is 7.27 in test [1], 5.42 in test [2] and 5.53 in test [3] (setting [4]).
The like results for `CC(=O)Nc1nc2ccc(-c3cncc(NS(=O)(=O)c4ccc(F)cc4)c3)nc2s1` [Example 228, N-(5-(5-(4-Fluorophenylsulfonamido)pyridin-3-yl)thiazolo[5,4-b]pyridin-2-yl)acetamide] were, in that order, 8.12, 7.25 and 7.26.
The like results for `CC(=O)Nc1nc2ccc(-c3cnc(C)c(NS(=O)(=O)c4ccccc4F)c3)cc2s1` [Example 112, N-(6-(5-(((2-fluorophenyl)sulfonyl)amino)-6-methyl-3-pyridinyl)-1,3-benzothiazol-2-yl)acetamide] were, in that order, 8.26, 8.04 and 7.77.
For the molecule `CC(=O)Nc1nc2ccc(-c3cnc(Cl)c(NS(=O)(=O)c4cc(Cl)cc(Cl)c4)c3)cc2s1` [Example 175, N-(6-(6-chloro-5-(3,5-dichlorophenylsulfonamido)pyridin-3-yl)benzo[d]thiazol-2-yl)acetamide], the pIC50 in test [1] is 8.49; in test [2] it was 8.27; in test [3] (setting [4]), 7.93.
The like results for `COc1cc(-c2ccc3nc(NC(C)=O)sc3c2)cnc1Cl` [Example 240, N-(6-(6-chloro-5-methoxypyridin-3-yl)benzo[d]thiazol-2-yl)acetamide] were, in that order, 6.81, 5.89 and 6.19.
Taken in the same sequence, the figures for `CC(=O)Nc1nc2ccc(-c3ccnc(N(C)S(=O)(=O)c4ccc(C(C)(C)C)cc4)n3)cc2s1` [Example 205, N-(6-(2-(4-tert-butyl-N-methylphenylsulfonamido)pyrimidin-4-yl)benzo[d]thiazol-2-yl)acetamide] were 7.53, 7.06 and 7.24.
The like results for `CN(C)c1cc(-c2ccc3nc(NC(=O)COc4ccccc4)sc3c2)cnc1Cl` [Example 272, N-(6-(6-chloro-5-(dimethylamino)pyridin-3-yl)benzo[d]thiazol-2-yl)-2-phenoxyacetamide] were, in that order, 7.23, 5.84 and less than 5.30.
In the case of `CC(=O)Nc1nc2ccc(-c3cnc(Cl)c(N(C)C)c3)cc2s1` [Example 269, N-(6-(6-Chloro-5-(dimethylamino)pyridin-3-yl)benzo[d]thiazol-2-yl)acetamide], the pIC50 in test [1] is 7.70; in test [2], 6.66; in test [3] (setting [4]), 7.25.
With `COc1nccc(-c2ccc3nc(NC(C)=O)sc3c2)n1` [Example 51, N-(6-(2-methoxy-4-pyrimidinyl)-1,3-benzothiazol-2-yl)acetamide], the pIC50 was 6.30 in test [1], less than 4.40 in test [2] and 6.02 in test [3] (setting [4]).
The like results for `COCC(=O)Nc1nc2ccc(-c3cnc(Cl)c(NC(C)C)c3)cc2s1` [Example 144, N-(6-(6-chloro-5-((1-methylethyl)amino)-3-pyridinyl)-1,3-benzothiazol-2-yl)-2-methoxyacetamide] were, in that order, 6.95, 5.80 and 6.14.
`CC(=O)Nc1nc2ccc(-c3cncc(N(C)S(=O)(=O)c4ccccc4)c3)cc2s1` [Example 224, N-(6-(5-(N-methylphenylsulfonamido)pyridin-3-yl)benzo[d]thiazol-2-yl)acetamide]: the pIC50 in test [1] was 6.95; in test [2], 5.83; in test [3] (setting [4]), 6.84.
The like results for `CC(=O)Nc1nc2ccc(-c3cncc(NS(=O)(=O)c4cccc(C(F)(F)F)c4)c3)cc2s1` [Example 197, N-(6-(5-(3-(trifluoromethyl)phenylsulfonamido)pyridin-3-yl)benzo[d]thiazol-2-yl)acetamide] were, in that order, 8.03, 7.92 and 7.10.
As for `CC(C)Nc1cc(-c2ccc3nc(NC(=O)Cc4ccccn4)sc3c2)cnc1Cl` [Example 141, N-(6-(6-chloro-5-(isopropylamino)pyridin-3-yl)benzo[d]thiazol-2-yl)-2-(pyridin-2-yl)acetamide], the pIC50 in test [1] is 7.02; in test [2], 6.07; in test [3] (setting [4]), 6.07.
On to `CC(=O)Nc1nc2ccc(-c3ccnc(OCc4ccccc4)n3)cc2s1` [Example 3, N-(6-(2-(benzyloxy)-4-pyrimidinyl)-1,3-benzothiazol-2-yl)acetamide], for which the results for the pIC50 in test [1], in test [2] and in test [3] (setting [4]) were 7.02, 6.62 and 5.45, respectively.
`CC(=O)Nc1nc2ccc(-c3cnc(Cl)c(NS(=O)(=O)c4ccc(C(C)O)cc4)c3)cc2s1` (single isomer, unassigned) [Example 258]: the pIC50 in test [1] was 8.12; in test [2], 7.94; in test [3] (HCT 116 cells) it was 7.31.
With `CC(=O)Nc1nc2ccc(-c3ccnc(OCCCc4ccncc4)n3)cc2s1` [Example 44, N-(6-(2-(3-(4-pyridinyl)propoxy)-4-pyrimidinyl)-1,3-benzothiazol-2-yl)acetamide], the pIC50 was 7.01 in test [1], 5.56 in test [2] and 6.24 in test [3] (setting [4]).
Taken in the same sequence, the figures for `CC(=O)Nc1nc2ccc(-c3cnc(C(F)(F)F)c(O)c3)cc2s1` [Example 302, N-(6-(5-hydroxy-6-(trifluoromethyl)pyridin-3-yl)benzo[d]thiazol-2-yl)acetamide] were 8.07, 6.80 and 6.80.
The like results for `CC(=O)Nc1nc2ccc(-c3ccnc(Sc4c(C)cccc4C)n3)cc2s1` [Example 129, N-(6-(2-((2,6-dimethylphenyl)sulfanyl)-4-pyrimidinyl)-1,3-benzothiazol-2-yl)acetamide] were, in that order, 7.42, 6.32 and 6.01.
Taken in the same sequence, the figures for `COc1cccc(COc2nccc(-c3ccc4nc(NC(C)=O)sc4c3)n2)c1` [Example 108, N-(6-(2-((3-methoxybenzyl)oxy)-4-pyrimidinyl)-1,3-benzothiazol-2-yl)acetamide] were 7.01, 6.53 and 6.17.

(Values after US7928140B2, “Benzothiazole PI3 kinase modulators for cancer treatment” (Amgen Inc., priority 2007, dated 2011).)
